One block for each sequence: values may come before it.
Legend:
Assay in all cases: Phosphomimetic ProP-PD selection with NGS
Scribble PDZ2 = assay type: binding, human; settings: bait Scribble PDZ2
Protocol: (§1) Phage selections were carried out for four rounds following a protocol by Huang and Sidhu (Huang & Sidhu, 2011) with minor modifications. Non‐specific binding phage was removed by pre‐selections against immobilized GST throughout the selection. The selections against the (pre‐)phosphorylated wild‐type library were performed in 50 mM HEPES (pH 7.4) and 150 mM NaCl (HBS) following the same procedure after pre‐phosphorylation of the library.
(§2) • Immobilize proteins (15 μg in 100 μl PBS) in a 96‐well MaxiSorp microtiter plate (NUNC) overnight at 4°C. • Start a 2YT culture of E. coli Omnimax supplemented with 100 μg/ml tetracycline to retain the F pilus epitope. • Block the wells with 200 μl 0.5% BSA in PBS for 2 h at 4°C. • Precipitate naïve phage library (10^11 cfu per selection) or amplified phage pool from the previous round of selection by adding one‐fifth the volume of PEG/NaCl. • Incubate on ice for 10 min, and pellet precipitated phage by centrifugation at 5,300 g for 15 min. Resuspend the phage pellet in 100 μl PBS per selection. • Add 100 μl of phage solution to the GST‐coated pre‐selection wells and incubate for 1 h. • Transfer the phage solution to the immobilized target proteins and allow it to bind for 2 h at 8°C. • Wash the plate four times with 200 μl cold wash buffer (PBS, 0.05% Tween‐20). • Elute bound phage by incubation with 100 μl log phase (0.6–0.8 OD600) E. coli Omnimax for 30 min at 37°C with shaking (200 RPM). • Add 10^12 cfu/ml M13K07 helper phage for hyperinfection of the bacteria and incubate as above for 45 min. • Transfer the bacterial culture to 10 ml 2YT supplemented with 50 μg/ml carbenicillin, 25 μg/ml kanamycin, and 300 μM IPTG and incubate overnight at 37°C while shaking. • Perform phage pool ELISA to monitor the progress of the selection as described previously (Huang & Sidhu, 2011).
(§3) The naïve library and the enriched phage pools of the third day of selection were amplified and barcoded by PCR and analyzed by NGS as described elsewhere (McLaughlin & Sidhu, 2013; Ivarsson et al, 2014). The reads were demultiplexed using the barcode sequences and filtered by discarding sequences with a Phred quality score under 30. Sequences were mapped to the original library using Bowtie (Langmead et al, 2009) with two mismatches between reads and library sequence. Nucleotide mutations leading to amino acid substitutions were subsequently removed. Cutoff values of NGS counts were assigned for each pool. PWMs were generated based on the remaining peptides (aligned on the C‐termini) using WebLogo (Crooks et al, 2004).
(§4) However, there was no significant correlation of the actual read counts (selection “strength”) and the initial representation in the library, reflecting the strong selection during phage display (wt+mimetic: P‐value: 0.49, ρ = −0.08, mimetic only: P‐value: 0.069, ρ = −0.2, wt only: P‐value: 0.12, ρ = 0.17). Consequently, the amount of reads for each binder after phage display is not a function of the amount of input reads in the naïve library and no modeling based on the input library frequencies to score the interactions is necessary. To allow for comparison between replicate selections, we used the fraction of NGS reads within a certain set, instead of the absolute number of NGS reads, as the absolute numbers differ between different NGS batches.

DLG1 PDZ2 = target: T1, DLG1 PDZ2 (Homo sapiens, UniProt Q12959); assay type: binding; settings: mean of selections 1-3, bait DLG1 PDZ2
T1 construct: human DLG1 PDZ2 aa 311–407 in a modified pRSET vector 40; made in house; host or cells: E. coli BL21 Gold (DE3)
T1 sequence (Q12959 311-407): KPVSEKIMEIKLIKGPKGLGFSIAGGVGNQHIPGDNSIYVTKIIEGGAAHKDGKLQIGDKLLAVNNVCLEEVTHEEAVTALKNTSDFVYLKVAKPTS
Protocol: as §1, §2, §3, §4

DLG1 PDZ1 = assay type: binding, human; settings: mean of selections 1-3, bait DLG1 PDZ1; for Mean fraction #NGS counts wt peptide / total counts selection: wild type peptide; for Mean fraction #NGS counts mimetic peptide / total count selection: phosphomimetic peptide
Protocol: as §1, §2, §3, §4

Scribble PDZ1 = target: T2, Scribble PDZ1 (Homo sapiens, UniProt Q14160); assay type: binding; settings: bait Scribble PDZ1; mean of selections 1-3
T2 construct: human Scribble PDZ1 aa 719–829 in; made in house; host or cells: E. coli BL21 Gold (DE3)
T2 sequence (Q14160 719-829): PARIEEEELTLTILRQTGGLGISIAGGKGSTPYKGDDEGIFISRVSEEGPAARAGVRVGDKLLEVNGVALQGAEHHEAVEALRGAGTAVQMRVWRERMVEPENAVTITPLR
Protocol: as §1, §2, §3, §4

Scribble PDZ3 = assay type: binding, human; settings: bait Scribble PDZ3
Protocol: as §1, §2, §3, §4

[1] = mean of selections 1 and 2 (selection 3 empty)
[2] = mean of selections 1-3, wild type peptide

Mean fraction #NGS counts wt peptide / total counts selection (DLG1 PDZ2): 5.408e-5
Sequence: MRLQSETSV
Mean fraction #NGS counts wt peptide / total counts selection (DLG1 PDZ1): 1.185e-6

Mean fraction #NGS counts mimetic peptide / total count selection (DLG1 PDZ2): 0.0004709
Sequence: VVSERISEV
Mean fraction #NGS counts mimetic peptide / total count selection (Scribble PDZ2; mean over selections): 0.0003798

Mean fraction #NGS counts mimetic peptide / total count selection (Scribble PDZ1): 0.0001134
Sequence: GELALLTKL
Mean fraction #NGS counts mimetic peptide / total count selection (DLG1 PDZ1): 1.514e-5

Mean fraction #NGS counts wt peptide / total counts selection (DLG1 PDZ2): 0.0001112
Sequence: YPASPDSWV
Mean fraction #NGS counts wt peptide / total counts selection (Scribble PDZ2; [1]): 0.02304

Mean fraction #NGS counts mimetic peptide / total count selection (Scribble PDZ1): 0.0003719
Sequence: EEREVTTYL
Mean fraction #NGS counts mimetic peptide / total count selection (DLG1 PDZ1): 3.309e-5
Mean fraction #NGS counts mimetic peptide / total count selection (Scribble PDZ3; mean over selections 1-3): 0.000214

Mean fraction #NGS counts mimetic peptide / total count selection (DLG1 PDZ2): 6.6203e-5
Sequence: TRLEQHTDV
Mean fraction #NGS counts mimetic peptide / total count selection (DLG1 PDZ1): 8.513e-6

Mean fraction #NGS counts wt peptide / total counts selection (DLG1 PDZ2): 0.003213
Sequence: KLSSIESDV
Mean fraction #NGS counts wt peptide / total counts selection (DLG1 PDZ1): 2.936e-5
Mean fraction #NGS counts wt peptide / total counts selection (Scribble PDZ3; mean over selections 1-3): 0.0003618

Mean fraction #NGS counts mimetic peptide / total count selection (DLG1 PDZ2): 0
Sequence: YPGEPDEWV
Mean fraction #NGS counts mimetic peptide / total count selection (DLG1 PDZ1): 0.01439

Mean fraction #NGS counts wt peptide / total counts selection (DLG1 PDZ2): 0.0001258
Mean fraction #NGS counts wt peptide / total counts selection (DLG1 PDZ2; wild type peptide): 0.0001258
Mean fraction #NGS counts wt peptide / total counts selection (Scribble PDZ1): 4.38e-5
Sequence: SGSYLVTSV
Mean fraction #NGS counts wt peptide / total counts selection (Scribble PDZ2; [1]): 0.0003798
Mean fraction #NGS counts wt peptide / total counts selection (Scribble PDZ2; mean over selections): 0.0003798

Mean fraction #NGS counts mimetic peptide / total count selection (DLG1 PDZ2): 0
Mean fraction #NGS counts mimetic peptide / total count selection (Scribble PDZ1): 1.46e-5
Sequence: ARVSKEEPL
Mean fraction #NGS counts mimetic peptide / total count selection (Scribble PDZ3; mean over selections 1-3): 0

Continued, sequence first:

Sequence: VVSERIESV
Mean fraction #NGS counts mimetic peptide / total count selection (Scribble PDZ2; [1]): 0.0001899

Sequence: RGLESATEL
Mean fraction #NGS counts mimetic peptide / total count selection (Scribble PDZ2; mean over selections): 0.001519

Sequence: ERLRVEEDV
Mean fraction #NGS counts mimetic peptide / total count selection (DLG1 PDZ2): 0
Mean fraction #NGS counts mimetic peptide / total count selection (DLG1 PDZ1): 0
Mean fraction #NGS counts mimetic peptide / total count selection (Scribble PDZ3; mean over selections 1-3): 0

Sequence: WVDSYYTEL
Mean fraction #NGS counts mimetic peptide / total count selection (Scribble PDZ2; mean over selections): 0.002879
Mean fraction #NGS counts mimetic peptide / total count selection (Scribble PDZ3; mean of selections 1-3, phosphomimetic peptide): 0.002589

Sequence: TRLSQHTDV
Mean fraction #NGS counts wt peptide / total counts selection (DLG1 PDZ2): 0.0007437
Mean fraction #NGS counts wt peptide / total counts selection (DLG1 PDZ1): 0.0004744

Sequence: WVDSYYTSL
Mean fraction #NGS counts wt peptide / total counts selection (Scribble PDZ2; mean over selections): 0
Mean fraction #NGS counts wt peptide / total counts selection (Scribble PDZ3; [2]): 0.0003456

Sequence: GSLALLTKL
Mean fraction #NGS counts wt peptide / total counts selection (Scribble PDZ1): 0
Mean fraction #NGS counts wt peptide / total counts selection (DLG1 PDZ1): 0

Sequence: VVHTPETSV
Mean fraction #NGS counts wt peptide / total counts selection (DLG1 PDZ2): 3.877e-6
Mean fraction #NGS counts wt peptide / total counts selection (Scribble PDZ1): 7.859e-5
Mean fraction #NGS counts wt peptide / total counts selection (Scribble PDZ2; mean over selections): 0
Mean fraction #NGS counts wt peptide / total counts selection (Scribble PDZ3; [2]): 6.402e-5

Sequence: ESREVTTYL
Mean fraction #NGS counts wt peptide / total counts selection (Scribble PDZ1): 2.8202e-5
Mean fraction #NGS counts wt peptide / total counts selection (DLG1 PDZ1): 0
Mean fraction #NGS counts wt peptide / total counts selection (Scribble PDZ3; mean over selections 1-3): 5.004e-5

Sequence: SSGHTSTTL
Mean fraction #NGS counts wt peptide / total counts selection (DLG1 PDZ1): 0

Sequence: YPGEPDSWV
Mean fraction #NGS counts mimetic peptide / total count selection (Scribble PDZ2; [1]): 0

Sequence: RSRSISEDV
Mean fraction #NGS counts mimetic peptide / total count selection (DLG1 PDZ2): 3.877e-6
Mean fraction #NGS counts mimetic peptide / total count selection (Scribble PDZ1): 0
Mean fraction #NGS counts mimetic peptide / total count selection (DLG1 PDZ1): 0
Mean fraction #NGS counts mimetic peptide / total count selection (Scribble PDZ3; mean over selections 1-3): 0

Sequence: RGLESATSL
Mean fraction #NGS counts wt peptide / total counts selection (Scribble PDZ2; mean over selections): 0

Sequence: ASEPGGTVV
Mean fraction #NGS counts mimetic peptide / total count selection (DLG1 PDZ1): 0

Sequence: SARLWETSI
Mean fraction #NGS counts wt peptide / total counts selection (Scribble PDZ1): 0.005032
Mean fraction #NGS counts wt peptide / total counts selection (DLG1 PDZ1): 5.924e-6
Mean fraction #NGS counts wt peptide / total counts selection (Scribble PDZ3; mean over selections 1-3): 0.08665

Sequence: MKRLTSTRL
Mean fraction #NGS counts wt peptide / total counts selection (Scribble PDZ1): 2.8701e-5
Mean fraction #NGS counts wt peptide / total counts selection (Scribble PDZ3; mean over selections 1-3): 3.6122e-5

Sequence: RIESLESEV
Mean fraction #NGS counts mimetic peptide / total count selection (DLG1 PDZ2; phosphomimetic peptide): 0.000103
Mean fraction #NGS counts mimetic peptide / total count selection (DLG1 PDZ1): 1.703e-5

Sequence: KYDKELTPV
Mean fraction #NGS counts wt peptide / total counts selection (DLG1 PDZ1): 1.185e-6

Sequence: TELTWISTL
Mean fraction #NGS counts mimetic peptide / total count selection (Scribble PDZ2; [1]): 0.002089
